Test results from patent publication US20210353593A1 (Chinook Therapeutics, Inc., priority 2019, published 2021).

Tested on: hallmark gene sets in kidney tissue of g-ddY mice
Test: Gene Set Enrichment Analysis (GSEA) of hallmark gene sets, g-ddY mouse kidney RNA-seq
Assay type: in vivo

## CCCCN(CCCC)C(=O)CN1C[C@H](c2ccc3c(c2)OCO3)[C@@H](C(=O)O)[C@@H]1c1ccc(OC)cc1 [Atrasentan, (2R,3R,4S)-4-(1,3-benzodioxol-5-yl)-1-[2-(dibutylamino)-2-oxoethyl]-2-(4-methoxyphenyl)pyrrolidine-3-carboxylic acid]
10 mg/kg/day vs. control
  HALLMARK_ADIPOGENESIS NES: 2.15
  HALLMARK_ALLOGRAFT_REJECTION NES: −2.25
  HALLMARK_ANDROGEN_RESPONSE NES: 0.88
  HALLMARK_ANGIOGENESIS NES: −1.94
  HALLMARK_APICAL_JUNCTION NES: −1.79
  HALLMARK_APICAL_SURFACE NES: −1.52
  HALLMARK_APOPTOSIS NES: −1.59
  HALLMARK_BILE_ACID_METABOLISM NES: 2.08
  HALLMARK_CHOLESTEROL_HOMEOSTASIS NES: 1.03
  HALLMARK_COAGULATION NES: −1.53
  HALLMARK_COMPLEMENT NES: −1.51
  HALLMARK_DNA_REPAIR NES: 0.79
  HALLMARK_E2F_TARGETS NES: −2.07
  HALLMARK_EPITHELIAL_MESENCHYMAL_TRANSITION NES: −2.47
  HALLMARK_ESTROGEN_RESPONSE_EARLY NES: −1.27
  HALLMARK_ESTROGEN_RESPONSE_LATE NES: −1.18
  HALLMARK_FATTY_ACID_METABOLISM NES: 2.25
  HALLMARK_G2M_CHECKPOINT NES: −2.15
  HALLMARK_GLYCOLYSIS NES: 1.62
  HALLMARK_HEDGEHOG_SIGNALING NES: −1.51
  HALLMARK_HEME_METABOLISM NES: 1.57
  HALLMARK_HYPOXIA NES: −1.38
  HALLMARK_IL2_STAT5_SIGNALING NES: −1.77
  HALLMARK_IL6_JAK_STAT3_SIGNALING NES: −2.34
  HALLMARK_INFLAMMATORY_RESPONSE NES: −2.34
  HALLMARK_INTERFERON_ALPHA_RESPONSE NES: −1.96
  HALLMARK_INTERFERON_GAMMA_RESPONSE NES: −2.26
  HALLMARK_KRAS_SIGNALING_DN NES: 1.28
  HALLMARK_KRAS_SIGNALING_UP NES: −2.24
  HALLMARK_M ITOTIC_SPINDLE NES: −1.55
  HALLMARK_MTORC1_SIGNALING NES: 1.11
  HALLMARK_MYC_TARGETS_V1 NES: −1.17
  HALLMARK_MYC_TARGETS_V2 NES: −0.780
  HALLMARK_MYOGENESIS NES: −1.19
  HALLMARK_NOTCH_SIGNALING NES: 0.83
  HALLMARK_OXIDATIVE_PHOSPHORYLATION NES: 3.06
  HALLMARK_P53_PATHWAY NES: −1.12
  HALLMARK_PANCREAS_BETA_CELLS NES: 0.85
  HALLMARK_PEROXISOME NES: 1.68
  HALLMARK_PI3K_AKT_MTOR SIGNALING NES: −0.92
  HALLMARK_PROTEIN_SECRETION NES: 1.06
  HALLMARK_REACTIVE_OXYGEN_SPECIES_PATHWAY NES: 1.59
  HALLMARK_SPERMATOGENESIS NES: 0.89
  HALLMARK_TGF_BETA_SIGNALING NES: −1.72
  HALLMARK_TNFA_SIGNALING_VIA_NFKB NES: −2.55
  HALLMARK_UNFOLDED_PROTEIN_RESPONSE NES: −0.91
  HALLMARK_UV_RESPONSE_DN NES: −2.19
  HALLMARK_UV_RESPONSE_UP NES: 1.28
  HALLMARK_WNT_BETA_CATENIN_SIGNALING NES: −1.02
  HALLMARK_XENOBIOTIC_METABOLISM NES: 1.95
20 mg/kg/day vs. control
  HALLMARK_ADIPOGENESIS NES: 2.26
  HALLMARK_ALLOGRAFT_REJECTION NES: −2.90
  HALLMARK_ANDROGEN_RESPONSE NES: 1.03
  HALLMARK_ANGIOGENESIS NES: −2.19
  HALLMARK_APICAL_JUNCTION NES: −2.24
  HALLMARK_APICAL_SURFACE NES: −1.67
  HALLMARK_APOPTOSIS NES: −2.17
  HALLMARK_BILE_ACID_METABOLISM NES: 2.39
  HALLMARK_CHOLESTEROL_HOMEOSTASIS NES: −1.03
  HALLMARK_COAGULATION NES: −2.11
  HALLMARK_COMPLEMENT NES: −2.01
  HALLMARK_DNA_REPAIR NES: 0.83
  HALLMARK_E2F_TARGETS NES: −2.34
  HALLMARK_EPITHELIAL_MESENCHYMAL_TRANSITION NES: −2.92
  HALLMARK_ESTROGEN_RESPONSE_EARLY NES: −1.52
  HALLMARK_ESTROGEN_RESPONSE_LATE NES: −1.37
  HALLMARK_FATTY_ACID_METABOLISM NES: 2.51
  HALLMARK_G2M_CHECKPOINT NES: −2.26
  HALLMARK_GLYCOLYSIS NES: 1.53
  HALLMARK_HEDGEHOG_SIGNALING NES: −1.72
  HALLMARK_HEME_METABOLISM NES: 1.92
  HALLMARK_HYPOXIA NES: −1.62
  HALLMARK_IL2_STAT5_SIGNALING NES: −2.20
  HALLMARK_IL6_JAK_STAT3_SIGNALING NES: −2.92
  HALLMARK_INFLAMMATORY_RESPONSE NES: −2.96
  HALLMARK_INTERFERON_ALPHA_RESPONSE NES: −2.44
  HALLMARK_INTERFERON_GAMMA_RESPONSE NES: −2.88
  HALLMARK_KRAS_SIGNALING_DN NES: 1.32
  HALLMARK_KRAS_SIGNALING_UP NES: −2.65
  HALLMARK_M ITOTIC_SPINDLE NES: −1.79
  HALLMARK_MTORC1_SIGNALING NES: 1.23
  HALLMARK_MYC_TARGETS_V1 NES: −0.81
  HALLMARK_MYC_TARGETS_V2 NES: 0.76
  HALLMARK_MYOGENESIS NES: −1.60
  HALLMARK_NOTCH_SIGNALING NES: 0.69
  HALLMARK_OXIDATIVE_PHOSPHORYLATION NES: 3.38
  HALLMARK_P53_PATHWAY NES: −1.3
  HALLMARK_PANCREAS_BETA_CELLS NES: 0.98
  HALLMARK_PEROXISOME NES: 1.88
  HALLMARK_PI3K_AKT_MTOR SIGNALING NES: −1.24
  HALLMARK_PROTEIN_SECRETION NES: 1.08
  HALLMARK_REACTIVE_OXYGEN_SPECIES_PATHWAY NES: 1.61
  HALLMARK_SPERMATOGENESIS NES: 1.17
  HALLMARK_TGF_BETA_SIGNALING NES: −1.96
  HALLMARK_TNFA_SIGNALING_VIA_NFKB NES: −3.06
  HALLMARK_UNFOLDED_PROTEIN_RESPONSE NES: −0.64
  HALLMARK_UV_RESPONSE_DN NES: −2.36
  HALLMARK_UV_RESPONSE_UP NES: 1.15
  HALLMARK_WNT_BETA_CATENIN_SIGNALING NES: −1.57
  HALLMARK_XENOBIOTIC_METABOLISM NES: 2.16
30 mg/kg/day
  cell proliferation associated signaling (mitotic spindle and G2M checkpoint): reduced
  inflammatory response signaling: reduced
30 mg/kg/day vs. control
  HALLMARK_ADIPOGENESIS NES: 2.64
  HALLMARK_ALLOGRAFT_REJECTION NES: −2.12
  HALLMARK_ANDROGEN_RESPONSE NES: 0.92
  HALLMARK_ANGIOGENESIS NES: −1.86
  HALLMARK_APICAL_JUNCTION NES: −2.00
  HALLMARK_APICAL_SURFACE NES: −1.65
  HALLMARK_APOPTOSIS NES: −1.52
  HALLMARK_BILE_ACID_METABOLISM NES: 2.40
  HALLMARK_CHOLESTEROL_HOMEOSTASIS NES: 1.14
  HALLMARK_COAGULATION NES: −1.56
  HALLMARK_COMPLEMENT NES: −1.56
  HALLMARK_DNA_REPAIR NES: 1.52
  HALLMARK_E2F_TARGETS NES: −1.46
  HALLMARK_EPITHELIAL_MESENCHYMAL_TRANSITION NES: −2.60
  HALLMARK_ESTROGEN_RESPONSE_EARLY NES: −1.22
  HALLMARK_ESTROGEN_RESPONSE_LATE NES: 1.16
  HALLMARK_FATTY_ACID_METABOLISM NES: 2.90
  HALLMARK_G2M_CHECKPOINT NES: −1.92
  HALLMARK_GLYCOLYSIS NES: 1.96
  HALLMARK_HEDGEHOG_SIGNALING NES: −1.94
  HALLMARK_HEME_METABOLISM NES: 1.99
  HALLMARK_HYPOXIA NES: −1.18
  HALLMARK_IL2_STAT5_SIGNALING NES: −1.56
  HALLMARK_IL6_JAK_STAT3_SIGNALING NES: −2.33
  HALLMARK_INFLAMMATORY_RESPONSE NES: −2.40
  HALLMARK_INTERFERON_ALPHA_RESPONSE NES: −1.80
  HALLMARK_INTERFERON_GAMMA_RESPONSE NES: −2.26
  HALLMARK_KRAS_SIGNALING_DN NES: −1.12
  HALLMARK_KRAS_SIGNALING_UP NES: −2.31
  HALLMARK_M ITOTIC_SPINDLE NES: −2.02
  HALLMARK_MTORC1_SIGNALING NES: 1.81
  HALLMARK_MYC_TARGETS_V1 NES: 1.26
  HALLMARK_MYC_TARGETS_V2 NES: 0.92
  HALLMARK_MYOGENESIS NES: −1.30
  HALLMARK_NOTCH_SIGNALING NES: −1.15
  HALLMARK_OXIDATIVE_PHOSPHORYLATION NES: 3.69
  HALLMARK_P53_PATHWAY NES: 1.10
  HALLMARK_PANCREAS_BETA_CELLS NES: 1.07
  HALLMARK_PEROXISOME NES: 2.39
  HALLMARK_PI3K_AKT_MTOR SIGNALING NES: 0.83
  HALLMARK_PROTEIN_SECRETION NES: 1.73
  HALLMARK_REACTIVE_OXYGEN_SPECIES_PATHWAY NES: 1.98
  HALLMARK_SPERMATOGENESIS NES: 1.21
  HALLMARK_TGF_BETA_SIGNALING NES: −1.55
  HALLMARK_TNFA_SIGNALING_VIA_NFKB NES: −2.63
  HALLMARK_UNFOLDED_PROTEIN_RESPONSE NES: 0.78
  HALLMARK_UV_RESPONSE_DN NES: −2.39
  HALLMARK_UV_RESPONSE_UP NES: 1.63
  HALLMARK_WNT_BETA_CATENIN_SIGNALING NES: −1.63
  HALLMARK_XENOBIOTIC_METABOLISM NES: 2.38
